Patent publication US20150259331A1, “PROTOZOAN PARASITE GROWTH INHIBITORS” (Northeastern University, priority 2014, published 2015)
Where a name gives a salt, the structure may show the parent alone. Read-outs that look alike come from different tables or passages of the source.

Tests used:
[1] = system: T. cruzi; assay: T. cruzi growth inhibition; format: cell-based, Trypanosoma cruzi; conditions: for inhibition at 10 µM: read-out: T. cruzi % inh at 10 μM
[2] = system: P. falciparum W2; assay: P. falciparum W2 assay; format: cell-based; conditions: strain W2, read-out: P. falciparum W2 (EC50)
[3] = system: P. falciparum C235; assay: P. falciparum C235 assay; format: cell-based; conditions: read-out: P. falciparum C235 (EC50)
[4] = system: T. brucei brucei Lister 427; assay: Trypanosome replication assay; format: cell-based, Trypanosoma brucei brucei; conditions: 48 h, 48 h, values ±7%
Protocol: (§1) Then 2 μL of DMSO (control) or different concentrations of drugs prepared from 200× DMSO stocks were added to the cultures. Cells were incubated at 37° C. for 48 h and counted with a hemocytometer. […] All experiments were repeated thrice in independent studies where each dose was administered in duplicate (total n=6). HepG2 Cell Toxicity Assay. The 384 well MTT cytotoxicity assay is a modification of the MTT method described by Ferrari et al. optimized for 384-well throughput, with modifications described below.

[5] = system: L. major amastigote; assay: L. major amastigote assay; format: cell-based
[6] = system: HepG2 cells; assay: HepG2 cell toxicity (MTT) assay; format: cell-based
Protocol: as §1, with “cultures.” for “cultures. Cells were incubated at 37° C. for 48 h and counted with a hemocytometer.”
HepG2 Cell Toxicity assay. The 384 well MTT cytotoxicity assay is a modification of the MTT method described by Ferrari et al.^1 ENREF—26_ENREF—26_ENREF—26 optimized for 384 well throughput. […] 4.25 μL of diluted test compound was then added to the 38.3 μL of media in each well providing a 10 fold final dilution of compound. […] After a 48 hour incubation period, 8 μL of a 1.5 mg/ml solution of MTT diluted in complete MEM media was added to each well. All plates were subsequently incubated in the dark for 1 hour at room temperature. After incubation, the media and drugs in each well was removed by shaking plate over sink, the plates are then left to dry in hood for 15 minutes. […] Plates are put on a 3-D rotator for 15-30 minutes. Absorbance was determined in all wells using a Tecan iControl 1.6 Infinite plate reader.

[7] = system: L. major promastigote; assay: L. major promastigote assay; format: cell-based
[8] = system: P. falciparum D6; assay: P. falciparum D6 assay; format: cell-based; conditions: strain D6
[9] = Plasmodium falciparum, strain C235
[10] = Trypanosoma brucei, concentration giving 50% inhibition of growth of T brucei brucei Lister 427 cells, read-out: Tbb EC50
[11] = Homo sapiens, HepG2, 48 h, MTT, 48 hour incubation, read-out: HepG2 IC50

EC50 ([2]; Plasmodium falciparum)	EC50 [3, 9]	EC50 [4, 10]	EC50 ([5]; Leishmania major)	EC50 ([7]; Leishmania major)	EC50 ([8]; Plasmodium falciparum)	SMILES	inhibition at 10 µM ([1]; Trypanosoma cruzi)	IC50 [6, 11]	other results
44 nM	39 nM	530 nM	1600 nM	2800 nM	27 nM	CN1CCN(S(=O)(=O)c2ccc(-c3ccc4ncnc(Nc5ccc(OCc6cccc(F)c6)c(Cl)c5)c4c3)cc2)CC1 [Compound 10p, N-(3-Chloro-4-((3-fluorobenzyl)oxy)phenyl)-6-(4-((4-methylpiperazin-1-yl)sulfonyl)phenyl)quinazolin-4-amine]	60%	> 15000 nM	–
52 nM	50 nM	810 nM	2000 nM	3600 nM	46 nM	CN1CCCN(S(=O)(=O)c2ccc(-c3ccc4ncnc(Nc5ccc(OCc6cccc(F)c6)c(Cl)c5)c4c3)cc2)CC1 [Compound 10q, N-(3-Chloro-4-((3-fluorobenzyl)oxy)phenyl)-6-(4((4-methyl-1,4-diazepan-1-yl)sulfonyl)phenyl)quinazolin-4-amine]	–	1810 nM	EC50 ([1]; Trypanosoma cruzi): 510 nM
–	–	–	–	–	–	O=S(=O)(c1ccc(-c2ccc3ncnc(Nc4ccc(OCc5cccc(F)c5)c(Cl)c4)c3c2)cc1)N1CCNCC1 [Compound 10s]	–	–	EC50 [1]: 790 nM; EC50 [2]: 200 nM; EC50 ([3]; strain C235): 120 nM; EC50 ([4]; concentration giving 50% inhibition of growth of T brucei brucei Lister 427 cells, read-out: Tbb EC50): 280 nM; EC50 [5]: 800 nM; IC50 ([6]; MTT, 48 hour incubation, read-out: HepG2 IC50): 3320 nM; EC50 [7]: > 15000 nM; EC50 [8]: 94 nM
360 nM	200 nM	900 nM	3900 nM	1600 nM	120 nM	CS(=O)(=O)c1ccc(-c2ccc3ncnc(Nc4ccc(OCc5cccc(F)c5)c(Cl)c4)c3c2)cc1 [Compound 10t, N-(3-Chloro-4-((3-fluorobenzyl)oxy)phenyl)-6-(4-(methylsulfonyl)phenyl)quinazolin-4-amine]	–	> 15000 nM	EC50 ([1]; Trypanosoma cruzi): 650 nM
4100 nM	4100 nM	1440 nM	4100 nM	4100 nM	4100 nM	O=S(=O)(c1ccc(-c2ccc3ncnc(Nc4ccccc4)c3c2)cc1)N1CCOCC1 [Compound 20a, 6-(4-(Morpholinosulfonyl)phenyl)-N-phenylquinazolin-4-amine Hydrochloride]	13%	> 3000 nM	EC50 ([4]; concentration giving 50% inhibition of growth of T brucei brucei Lister 427 cells, listed as NEU-548, Hydrochloride, read-out: Tbb EC50): 1400 nM
6200 nM	2800 nM	1150 nM	> 15000 nM	450 nM	1700 nM	Cc1ccc(Nc2ncnc3ccc(-c4ccc(S(=O)(=O)N5CCOCC5)cc4)cc23)cc1 [Compound 20b, 6-(4-(Morpholinosulfonyl)phenyl)-N-(p-tolyl)quinazolin-4-amine Hydrochloride]	59%	> 15000 nM	EC50 ([4]; concentration giving 50% inhibition of growth of T brucei brucei Lister 427 cells, listed as NEU-549, Hydrochloride, read-out: Tbb EC50): 1200 nM
19000 nM	19000 nM	1060 nM	> 15000 nM	> 15000 nM	12000 nM	O=S(=O)(c1ccc(-c2ccc3ncnc(Nc4ccc(O)c(Cl)c4)c3c2)cc1)N1CCOCC1 [Compound 20c, 2-Chloro-4-((6-(4-(morpholinosulfonyl)phenyl)quinazolin-4-yl)amino)phenol Hydrochloride]	14%	> 15000 nM	EC50 ([4]; concentration giving 50% inhibition of growth of T brucei brucei Lister 427 cells, listed as NEU-550, Hydrochloride, read-out: Tbb EC50): 1100 nM
1700 nM	1200 nM	820 nM	4800 nM	830 nM	810 nM	COc1ccc(Nc2ncnc3ccc(-c4ccc(S(=O)(=O)N5CCOCC5)cc4)cc23)cc1Cl [Compound 20d, N-(3-Chloro-4-methoxyphenyl)-6-(4-(morpholinosulfonyl)-phenyl)quinazolin-4-amine Hydrochloride]	43%	> 15000 nM	–
720 nM	450 nM	1350 nM	> 15000 nM	470 nM	250 nM	O=S(=O)(c1ccc(-c2ccc3ncnc(Nc4ccc(OCc5ccccc5)c(Cl)c4)c3c2)cc1)N1CCOCC1 [Compound 20e, N-(4-(Benzyloxy)-3-chlorophenyl)-6-(4-(morpholinosulfonyl)phenyl)quinazolin-4-amine Hydrochloride]	9%	> 15000 nM	EC50 ([4]; concentration giving 50% inhibition of growth of T brucei brucei Lister 427 cells, listed as NEU-551, Hydrochloride, read-out: Tbb EC50): 1400 nM
440 nM	410 nM	680 nM	470 nM	14000 nM	200 nM	O=S(=O)(c1ccc(-c2ccc3ncnc(Nc4ccc(OCc5cccc(Br)c5)c(Cl)c4)c3c2)cc1)N1CCOCC1 [Compound 20f, N-(4-((3-Bromobenzyl)oxy)-3-chlorophenyl)-6-(4-(morpholinosulfonyl)phenyl)quinazolin-4-amine Hydrochloride]	7%	> 15000 nM	–
660 nM	330 nM	660 nM	1100 nM	15000 nM	230 nM	O=S(=O)(c1ccc(-c2ccc3ncnc(Nc4ccc(OCc5cccc(Cl)c5)c(Cl)c4)c3c2)cc1)N1CCOCC1 [Compound 20g, N-(3-Chloro-4-((3-chlorobenzyl)oxy)phenyl)-6-(4-(morpholinosulfonyl)phenyl)quinazolin-4-amine Hydrochloride]	4%	> 15000 nM	–

SMILES	EC50 ([2]; Plasmodium falciparum)	EC50 [3, 9]	EC50 [4, 10]	EC50 ([5]; Leishmania major)	EC50 ([7]; Leishmania major)	EC50 ([8]; Plasmodium falciparum)	inhibition at 10 µM ([1]; Trypanosoma cruzi)	IC50 [6, 11]	other results
O=S(=O)(c1ccc(-c2ccc3ncnc(Nc4ccc(OCc5cccc(F)c5)c(Cl)c4)c3c2)cc1)N1CCSCC1 [Compound 10r, N-(3-Chloro-4-((3-fluorobenzyl)oxy)phenyl)-6-(4-(thiomorpholinosulfonyl)phenyl)quinazolin-4-amine]	1600 nM	–	470 nM	> 15000 nM	> 15000 nM	460 nM	18%	> 15000 nM	EC50 ([3]; Plasmodium falciparum): 760 nM
CS(=O)(=O)c1cccc(-c2ccc3ncnc(Nc4ccc(OCc5cccc(F)c5)c(Cl)c4)c3c2)c1 [Compound 10u, N-(3-Chloro-4-((3-fluorobenzyl)oxy)phenyl)-6-(3-(methylsulfonyl)phenyl)quinazolin-4-amine]	1300 nM	620 nM	–	4700 nM	3500 nM	520 nM	–	> 15000 nM	EC50 ([1]; Trypanosoma cruzi): 5000 nM; EC50 ([4]; Trypanosoma brucei, read-out: Tbb EC50, concentration giving 50% inhibition of growth of T brucei brucei Lister 427 cells): 3210 nM; EC50 ([4]; read-out: Tbb EC50, concentration giving 50% inhibition of growth of T brucei brucei Lister 427 cells, listed as NEU-633): 3200 nM
CN(C)S(=O)(=O)c1ccccc1-c1ccc2ncnc(Nc3ccc(OCc4cccc(F)c4)c(Cl)c3)c2c1 [Compound 10v, 2-(4-((3-Chloro-4-((3-fluorobenzyl)oxy)phenyl)amino)-quinazolin-6-yl)-N,N-dimethylbenzenesulfonamide]	1800 nM	–	1040 nM	> 15000 nM	2800 nM	820 nM	–	–	EC50 ([1]; Trypanosoma cruzi): 1500 nM; EC50 ([3]; Plasmodium falciparum): 1100 nM; EC50 ([4]; concentration giving 50% inhibition of growth of T brucei brucei Lister 427 cells, listed as NEU-619, read-out: Tbb EC50): 1000 nM; IC50 ([6]; Homo sapiens, HepG2, 48 h, read-out: HepG2 IC50, MTT, 48 hour incubation): > 15000 nM
